The subject of assay [1] is synovial sarcoma cell lines (SYO1, Yamato, HS-SY-II, and ASKA). In words: Growth of synovial sarcoma cell lines (Example 2: confluency, crystal violet, colonies). The assay is classed as cell-based. As to conditions: FIGS. 4, 5, 6. As to the method:
(§1) Cells were treated with DMSO or the BRD9 degrader, Compound 1, at indicated concentrations, and proliferation was monitored from day 7 to day 14 by measuring confluency over time using an IncuCyte live cell analysis system (FIG. 4). Growth medium and compounds were refreshed every 3-4 days.
(§2) Cells were seeded into 12-well plates and treated with DMSO, 1 μM BRD9 inhibitor, Compound 2 (also known as BI-7273, see Martin et al, J Med Chem. 59(10):4462-4475 (2016); see structure of compound 2 below), or 1 μM BRD9 degrader, Compound 1.
(§3) The number of cells was optimized for each cell line. Growth medium and compounds were refreshed every 3-5 days. SYO1, Yamato, A549, 293T and HS-SY-II cells were fixed and stained at day 11. ASKA cells were fixed and stained at day 23. Staining was done by incubation with crystal violet solution (0.5 g Crystal Violet, 27 ml 37% Formaldehyde, 100 mL 10×PBS, 10 mL Methanol, 863 dH20 to 1 L) for 30 min followed by 3× washes with water and drying the plates for at least 24 h at room temperature. Subsequently plates were scanned on an Odyssey CLx Imaging system (FIG. 5).
(§4) Cells were seeded into 96-well ultra-low cluster plate (Costar, #7007) in 200 μL complete media and treated at day 2 with DMSO, Staurosporin, or BRD9 degrader, Compound 1, at indicated doses (FIG. 2C). Media and compounds were changed every 5 d and cell colonies were imaged at day 14.

Assay [2] deals with non-synovial control cancer cell lines (293T, A549, G401). In words: Growth of non-synovial control cancer cell lines (Example 2). It counts as cell-based. The conditions noted are these: FIGS. 4, 5, 6. As to the method:
as §1, §2, §3, §4

The test system of assay [3] is synovial sarcoma cell lines (SYO1, HS-SY-II, and ASKA). In words: Growth of synovial sarcoma cell lines, crystal violet, day 14 (Example 3). It counts as cell-based. As to the method:
(§5) Procedure: Cells were seeded into 6-well or 12-well plates and were treated daily with a BRD9 degrader (Compound 1), a bromo-domain BRD9 binder (Compound 2), E3 ligase binder (lenalidomide), DMSO, or staurosporin (positive control for cell killing), at indicated concentrations. The number of cells was optimized for each cell line. Growth media was refreshed every 5 days. By day 14, medium was removed, cells were washed with PBS, and stained using 500 μL of 0.005% (w/v) crystal violet solution in 25% (v/v) methanol for at least 1 hour at room temperature. Subsequently plates were scanned on an Odyssey CLx Imaging system.

The subject of assay [4] is non-synovial control cancer cell lines (RD, HCT116, and Calu6). In words: Growth of non-synovial control cancer cell lines, crystal violet, day 14 (Example 3). As to conditions: FIG. 8. The assay is classed as cell-based. As for the experimental part:
as §5

Assay [5] deals with SYO1 cells. In words: Cell cycle analysis, Click-iT Plus EdU flow cytometry. As to conditions: 200 nM or 1 μM, 8 or 13 days; compared to DMSO and lenalidomide. It counts as cell-based, human. As to the method:
(§6) Procedure: SYO1 cells were treated for 8 or 13 days with DMSO, a BRD9 degrader (Compound 1) at 200 nM or 1 μM, or an E3 ligase binder (lenalidomide) at 200 nM. Compounds were refreshed every 5 days. Cell cycle analysis was performed using the Click-iT™ Plus EdU Flow Cytometry Assay (Invitrogen). The apoptosis assay was performed using the Annexin V-FITC Apoptosis Detection Kit (Sigma A9210). Assays were performed according to the manufacturer's protocol.

Assay [6] has as its system SYO1 cells. In words: Apoptosis assay, Annexin V-FITC. As to conditions: 8 days; compared to DMSO controls. It counts as cell-based, human. As for the experimental part: as §6
Assay [7] concerns SYO-1 human biphasic synovial sarcoma tumor. In words: SYO-1 xenograft tumor growth in NOD SCID mice. It counts as in vivo. The conditions noted are these: 1 mg/kg, i.p., daily, 3 weeks; FIG. 14. As to the method:
Method: NOD SCID mice (Beijing Anikeeper Biotech, Beijing) were inoculated subcutaneously on the right flank with the single cell suspension of SYO-1 human biphasic synovial sarcoma tumor cells (5×106) in 100 μL Dulbecco's Modified Eagle Medium (DMEM) with 10% fetal bovine serum (FBS). The mice were randomized into either control group [10% dimethyl sulfoxide (DMSO), 40% polyethylene glycol (PEG400) and 50% water], or treatment group D1 when the mean tumor size reached about 117 mm^3. Mice were dosed daily through intraperitoneal (i.p.) route over the course of 3 weeks. All dose volumes were adjusted by body weights in terms of mg/kg.

In a further assay the target is T1, BRD9 (Homo sapiens, UniProt Q9H8M2).
T1 sequence (Q9H8M2 1-597): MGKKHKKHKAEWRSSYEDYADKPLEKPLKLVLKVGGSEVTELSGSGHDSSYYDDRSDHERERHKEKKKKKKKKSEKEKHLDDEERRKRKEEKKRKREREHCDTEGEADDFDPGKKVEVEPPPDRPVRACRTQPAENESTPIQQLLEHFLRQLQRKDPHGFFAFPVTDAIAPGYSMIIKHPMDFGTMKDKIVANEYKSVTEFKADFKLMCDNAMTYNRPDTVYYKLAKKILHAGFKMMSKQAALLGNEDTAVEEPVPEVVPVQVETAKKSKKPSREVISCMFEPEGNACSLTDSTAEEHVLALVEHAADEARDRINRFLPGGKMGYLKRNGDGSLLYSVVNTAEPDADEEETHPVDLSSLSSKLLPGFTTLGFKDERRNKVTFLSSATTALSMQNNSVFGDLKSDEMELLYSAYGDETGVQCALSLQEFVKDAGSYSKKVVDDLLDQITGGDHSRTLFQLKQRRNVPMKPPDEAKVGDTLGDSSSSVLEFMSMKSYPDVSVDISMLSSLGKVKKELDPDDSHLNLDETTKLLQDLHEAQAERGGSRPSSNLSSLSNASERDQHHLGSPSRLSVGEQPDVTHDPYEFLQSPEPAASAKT
In words: BRD9 degradation in synovial sarcoma tumor in vivo, western blot (Example 12). Details: degradation endogenous BRD9 protein in two synovial sarcoma cell lines; endogenous in cells; host or cells: SYO1 (SYO-1) synovial sarcoma cells. As to conditions: 1 mg/kg, i.p., 4 weeks; tumors 8, 72 and 168 hours post last dose; FIG. 15. As for the experimental part: Method: Mice were treated with D1, 1 mg/kg, i.p. for 4 weeks. Mice were then euthanized, and tumors were collected at 8 hours, 72 hours, and 168 hours post last dose. Tumors were lysed with 1× RIPA lysis buffer (Boston BioProducts, BP-115D) with protease and phosphatase protein inhibitor (Roche Applied Science #04906837001 & 05892791001). Equal amounts of lysate (30 μg) were loaded in 4-12% Bis-Tris Midi Protein Gels in 1×MOPS buffer; samples ran at 120 V for 120 minutes. Protein was transferred to membrane with TransBlot at 250 mA for 150 minutes, and then membranes were blocked with Odyssey blocking buffer for 1 hour at room temperature. Membranes were hybridized overnight in cold room with primary antibodies. Images acquired using Li-COR imaging system (Li-COR Biotechnology, Lincoln, Nebr.).
(In general: A western blot detects proteins with antibodies after separation by electrophoresis.)

Molecules are shown by their SMILES. “Also recorded” adds a separate entry of the source.

Regarding `COc1cc(-c2cn(C)c(=O)c3cnccc23)cc(OC)c1CN(C)CC(=O)NCCOCCOCCNc1cccc2c1C(=O)N(C1CCC(=O)NC1=O)C2=O` (stereo not drawn) [Compound 1, dBRD9], the “growth of the cells” value was “inhibition of the growth of the cells” in assay [1]; “does not result in inhibition of the growth” in assay [2]; “inhibition of the growth of the cells” in assay [3] (SYO1, HS-SY-II, ASKA, day 14, FIG. 7); “did not result in inhibition of the growth” in assay [4]. Further, the “growth inhibition compared with the other treatments” value in assay [3] (all synovial cell lines) is reported as “most significant growth inhibition”. For the same compound, the “numbers of cells in the S-phase of the cell cycle” value in the assay with SYO1 cells [5] is recorded as “reduced numbers of cells in the S-phase”. Moreover, in the assay with SYO1 cells [6], the “numbers of early- and late-apoptotic cells” value was “increased numbers of early- and late-apoptotic cells”.

For the compound `COc1cc(-c2cn(C)c(=O)c3cnc(N4CCC4)cc23)cc(OC)c1CN1CCC(CN2CCC3(CC2)CN(c2ccc4c(c2)C(=O)N(C2CCC(=O)NC2=O)C4)C3)CC1` (racemic) [Compound D1, 3-[6-(7-[[1-([4-[6-(azetidin-1-yl)-2-methyl-1-oxo-2,7-naphthyridin-4-yl]-2,6-dimethoxyphenyl]methyl)piperidin-4-yl]methyl]-2,7-diazaspiro[3.5]nonan-2-yl)-1-oxo-3H-isoindol-2-yl]piperidine-2,6-dione], the tumor growth entry in assay [7] is reported as “tumor growth inhibition”. Besides, the “BRD9 level in tumor” value on BRD9 was “complete degradation of BRD9 target up to 168 hours after dose; also recorded: BRD9 inhibition”.
